Source: the supplement of paper PMC10307832

Experiments:
Test in all cases: relative viability (nuclei count vs DMSO), 5 days (fraction); higher = more cells survive
[1] = system: ABC-1
Method in brief: (§1)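 One day after seeding in 1536-well plates, lung cancer cell lines were dosed by pin tool. Dosing was either single-drug or a fixed anchor-drug dose plus five library-drug doses (not always all listed) in √10 steps. After 5 days, nuclei were stained in one fix-and-stain step and counted on 4× images, and relative viability is the nuclei count of treated wells over that of vehicle wells, given as the median of duplicate plates.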

[2] = system: NCI-H358
Method in brief: as §1

[3] = system: EPLC-272H
Method in brief: as §1

[4] = system: NCI-H441
Method in brief: as §1

[5] = system: CAL-12T
Method in brief: as §1

[6] = system: HCC-15
Method in brief: as §1

[7] = system: NCI-H1993
Method in brief: as §1

[8] = system: NCI-H2085
Method in brief: as §1

[9] = system: NCI-H2126
Method in brief: as §1

[10] = system: NCI-H1915
Method in brief: as §1

[11] = system: UMC-11
Method in brief: as §1

[12] = system: HOP-62
Method in brief: as §1

[13] = system: COR-L 105
Method in brief: as §1

[14] = system: HCC-78
Method in brief: as §1

[15] = system: NCI-H3122
Method in brief: as §1

[16] = system: NCI-H1755
Method in brief: as §1

[17] = system: NCI-H1666
Method in brief: as §1

[18] = system: LXF-289
Method in brief: as §1

[19] = system: NCI-H322M
Method in brief: as §1

[20] = system: EMC-BAC-2
Method in brief: as §1

[21] = system: NCI-H2023
Method in brief: as §1

[22] = system: NCI-H1975
Method in brief: as §1

Question: With `CC1(C)CCC(c2ccc(Cl)cc2)=C(CN2CCN(c3ccc(C(=O)NS(=O)(=O)c4ccc(N[C@H](CCN5CCOCC5)CSc5ccccc5)c(S(=O)(=O)C(F)(F)F)c4)cc3)CC2)C1` [Navitoclax] + Cc1nc(NC(=O)N2CCC[C@H]2C(N)=O)sc1-c1ccnc(C(C)(C)C(F)(F)F)c1 [Alpelisib] (partner 2 µM) as the compound, how does the relative viability ([1]; first compound 0.005 µM) read?
Answer: 1.14

Question: What about the relative viability ([1]; first compound 0.01581 µM) of the same compound?
Answer: 1.39

Question: What about the relative viability ([1]; first compound 0.05 µM) of the same compound?
Answer: 1.04

Question: What about the relative viability ([1]; first compound 0.1581 µM) of the same compound?
Answer: 0.899

Question: What about the relative viability ([1]; first compound 0.5 µM) of the same compound?
Answer: 1.01

Question: And the relative viability ([2]; first compound 0.005 µM)?
Answer: 0.817

Question: And the relative viability ([2]; first compound 0.01581 µM)?
Answer: 0.955

Question: What about the relative viability ([2]; first compound 0.05 µM) of the same compound?
Answer: 1.01

Question: What about the relative viability ([2]; first compound 0.1581 µM) of the same compound?
Answer: 1.04

Question: And the relative viability ([2]; first compound 0.5 µM)?
Answer: 0.856

Question: What about the relative viability ([3]; first compound 0.005 µM) of the same compound?
Answer: 0.877

Question: What about the relative viability ([3]; first compound 0.1581 µM) of the same compound?
Answer: 0.933

Question: What about the relative viability ([3]; first compound 0.5 µM) of the same compound?
Answer: 0.821

Question: What about the relative viability ([4]; first compound 0.005 µM) of the same compound?
Answer: 0.654

Question: And the relative viability ([4]; first compound 0.01581 µM)?
Answer: 0.901

Question: And the relative viability ([4]; first compound 0.05 µM)?
Answer: 0.852

Question: And the relative viability ([4]; first compound 0.1581 µM)?
Answer: 0.743

Question: What about the relative viability ([4]; first compound 0.5 µM) of the same compound?
Answer: 0.63

Question: What about the relative viability ([5]; first compound 0.005 µM) of the same compound?
Answer: 1.08

Question: And the relative viability ([5]; first compound 0.01581 µM)?
Answer: 1.28

Question: What about the relative viability ([5]; first compound 0.05 µM) of the same compound?
Answer: 1.31

Question: And the relative viability ([5]; first compound 0.1581 µM)?
Answer: 1.25

Question: What about the relative viability ([5]; first compound 0.5 µM) of the same compound?
Answer: 1.11

Question: What about the relative viability ([6]; first compound 0.005 µM) of the same compound?
Answer: 0.879

Question: And the relative viability ([6]; first compound 0.01581 µM)?
Answer: 0.957

Question: And the relative viability ([6]; first compound 0.05 µM)?
Answer: 0.88

Question: And the relative viability ([6]; first compound 0.1581 µM)?
Answer: 0.882

Question: And the relative viability ([6]; first compound 0.5 µM)?
Answer: 0.764

Question: What about the relative viability ([7]; first compound 0.005 µM) of the same compound?
Answer: 0.658

Question: What about the relative viability ([7]; first compound 0.01581 µM) of the same compound?
Answer: 0.732

Question: And the relative viability ([7]; first compound 0.05 µM)?
Answer: 0.682

Question: And the relative viability ([7]; first compound 0.1581 µM)?
Answer: 0.676

Question: What about the relative viability ([7]; first compound 0.5 µM) of the same compound?
Answer: 0.749

Question: And the relative viability ([8]; first compound 0.005 µM)?
Answer: 0.944

Question: What about the relative viability ([8]; first compound 0.01581 µM) of the same compound?
Answer: 0.996

Question: What about the relative viability ([8]; first compound 0.05 µM) of the same compound?
Answer: 0.881

Question: And the relative viability ([8]; first compound 0.1581 µM)?
Answer: 0.957

Question: What about the relative viability ([8]; first compound 0.5 µM) of the same compound?
Answer: 0.925

Question: And the relative viability ([9]; first compound 0.005 µM)?
Answer: 0.7

Question: What about the relative viability ([9]; first compound 0.01581 µM) of the same compound?
Answer: 0.764

Question: And the relative viability ([9]; first compound 0.05 µM)?
Answer: 0.757

Question: What about the relative viability ([9]; first compound 0.1581 µM) of the same compound?
Answer: 0.727

Question: What about the relative viability ([9]; first compound 0.5 µM) of the same compound?
Answer: 0.771

Question: And the relative viability ([10]; first compound 0.005 µM)?
Answer: 1.08

Question: What about the relative viability ([10]; first compound 0.01581 µM) of the same compound?
Answer: 1.06

Question: And the relative viability ([10]; first compound 0.05 µM)?
Answer: 1.01

Question: And the relative viability ([10]; first compound 0.1581 µM)?
Answer: 0.94

Question: And the relative viability ([10]; first compound 0.5 µM)?
Answer: 1

Question: What about the relative viability ([11]; first compound 0.005 µM) of the same compound?
Answer: 0.961

Question: And the relative viability ([11]; first compound 0.01581 µM)?
Answer: 1.02

Question: What about the relative viability ([11]; first compound 0.1581 µM) of the same compound?
Answer: 0.979

Question: What about the relative viability ([11]; first compound 0.5 µM) of the same compound?
Answer: 0.623

Question: What about the relative viability ([12]; first compound 0.005 µM) of the same compound?
Answer: 0.781

Question: What about the relative viability ([12]; first compound 0.01581 µM) of the same compound?
Answer: 1.06

Question: What about the relative viability ([12]; first compound 0.05 µM) of the same compound?
Answer: 0.869

Question: What about the relative viability ([12]; first compound 0.1581 µM) of the same compound?
Answer: 0.871

Question: And the relative viability ([12]; first compound 0.5 µM)?
Answer: 0.785

Question: And the relative viability ([13]; first compound 0.005 µM)?
Answer: 0.878

Question: And the relative viability ([13]; first compound 0.01581 µM)?
Answer: 1.22

Question: And the relative viability ([13]; first compound 0.05 µM)?
Answer: 0.989

Question: And the relative viability ([13]; first compound 0.1581 µM)?
Answer: 1.07

Question: And the relative viability ([13]; first compound 0.5 µM)?
Answer: 0.978

Question: And the relative viability ([14]; first compound 0.005 µM)?
Answer: 0.309

Question: What about the relative viability ([14]; first compound 0.01581 µM) of the same compound?
Answer: 0.352

Question: And the relative viability ([14]; first compound 0.1581 µM)?
Answer: 0.341

Question: And the relative viability ([14]; first compound 0.5 µM)?
Answer: 0.339

Question: And the relative viability ([15]; first compound 0.005 µM)?
Answer: 0.686

Question: What about the relative viability ([15]; first compound 0.01581 µM) of the same compound?
Answer: 0.8

Question: And the relative viability ([15]; first compound 0.05 µM)?
Answer: 0.726

Question: What about the relative viability ([15]; first compound 0.1581 µM) of the same compound?
Answer: 0.901

Question: What about the relative viability ([15]; first compound 0.5 µM) of the same compound?
Answer: 0.766

Question: And the relative viability ([16]; first compound 0.005 µM)?
Answer: 0.903

Question: And the relative viability ([16]; first compound 0.01581 µM)?
Answer: 1

Question: And the relative viability ([16]; first compound 0.05 µM)?
Answer: 0.906

Question: And the relative viability ([16]; first compound 0.1581 µM)?
Answer: 0.904

Question: What about the relative viability ([16]; first compound 0.5 µM) of the same compound?
Answer: 0.947

Question: And the relative viability ([17]; first compound 0.005 µM)?
Answer: 1.03

Question: And the relative viability ([17]; first compound 0.01581 µM)?
Answer: 0.944

Question: What about the relative viability ([17]; first compound 0.05 µM) of the same compound?
Answer: 1.06

Question: What about the relative viability ([17]; first compound 0.1581 µM) of the same compound?
Answer: 0.878

Question: And the relative viability ([17]; first compound 0.5 µM)?
Answer: 0.958

Question: And the relative viability ([18]; first compound 0.005 µM)?
Answer: 1.02

Question: And the relative viability ([18]; first compound 0.01581 µM)?
Answer: 1.03

Question: And the relative viability ([18]; first compound 0.05 µM)?
Answer: 0.921

Question: What about the relative viability ([18]; first compound 0.1581 µM) of the same compound?
Answer: 1.02

Question: What about the relative viability ([18]; first compound 0.5 µM) of the same compound?
Answer: 1.08

Question: What about the relative viability ([19]; first compound 0.005 µM) of the same compound?
Answer: 0.644

Question: What about the relative viability ([19]; first compound 0.01581 µM) of the same compound?
Answer: 0.772

Question: And the relative viability ([19]; first compound 0.05 µM)?
Answer: 0.931

Question: What about the relative viability ([19]; first compound 0.1581 µM) of the same compound?
Answer: 0.791

Question: And the relative viability ([19]; first compound 0.5 µM)?
Answer: 0.591

Question: What about the relative viability ([20]; first compound 0.005 µM) of the same compound?
Answer: 0.733

Question: And the relative viability ([20]; first compound 0.01581 µM)?
Answer: 0.764

Question: What about the relative viability ([20]; first compound 0.05 µM) of the same compound?
Answer: 0.745

Question: And the relative viability ([20]; first compound 0.1581 µM)?
Answer: 0.69

Question: What about the relative viability ([20]; first compound 0.5 µM) of the same compound?
Answer: 0.759

Question: What about the relative viability ([21]; first compound 0.005 µM) of the same compound?
Answer: 0.581

Question: And the relative viability ([21]; first compound 0.01581 µM)?
Answer: 0.696

Question: What about the relative viability ([21]; first compound 0.05 µM) of the same compound?
Answer: 0.586

Question: What about the relative viability ([21]; first compound 0.1581 µM) of the same compound?
Answer: 0.616

Question: And the relative viability ([21]; first compound 0.5 µM)?
Answer: 0.625

Question: And the relative viability ([22]; first compound 0.005 µM)?
Answer: 0.639

Question: What about the relative viability ([22]; first compound 0.01581 µM) of the same compound?
Answer: 0.732

Question: What about the relative viability ([22]; first compound 0.05 µM) of the same compound?
Answer: 0.752

Question: And the relative viability ([22]; first compound 0.1581 µM)?
Answer: 0.653

Question: And the relative viability ([22]; first compound 0.5 µM)?
Answer: 0.578
